This is an account of results in PMC5049494, “Nitrotriazole-based acetamides and propanamides with broad spectrum antitrypanosomal activity” (European Journal of Medicinal Chemistry, 2016).

In general, IC50 refers to the midpoint of a concentration-inhibition curve. A word on the melting point: it is the temperature of the solid-liquid transition.

Where two headings read alike, the source gives them in different places.

Data set [1] deals with L6 cells (rat skeletal myoblasts). As to the kind of experiment: Cytotoxicity in the host L6 cells. It is filed as cell-based. Particulars: for fold less toxic towards L6 cells relative to unsubstituted compounds 10 and 10a: 9 vs 10, 9a vs 10a. Here is the method: (§1) Compounds in Table 1 were screened for anti-parasitic activity against three trypanosomatids: T. cruzi, T. b. rhodesiense and Leishmania donovani and compared with previously made analogs shown in orange and designated with a. […] In addition, compounds were tested for toxicity in L6 rat skeletal myoblasts, the host cells for T. cruzi amastigotes, in order to calculate a selectivity index for each parasite [SI = IC50L6/IC50parasite] (Table 1). The TDR (Special Programme for Research and Training in Tropical Diseases, World Health Organization) criteria were adopted to interpret antiparasitic activity and selectivity.
(§2) In vitro activity against T. cruzi, T. b. rhodesiense, L. donovani and cytotoxicity assessment using L6 cells (rat skeletal myoblasts) was determined using a 96-well plate format as previously described. Data were analyzed with the graphic program Softmax Pro (Molecular Devices, Sunnyvale, CA, USA), which calculated IC50 values by linear regression from the sigmoidal dose inhibition curves.

Data set [2] deals with T.b. rhodesiense, strain STIB 900 trypomastigotes. Details: method as in PMID 26344593, PMID 25580906. Particulars: cited from earlier work.
The subject of data set [3] is L6 cells (rat skeletal myoblasts). On the set-up: method as in PMID 26344593, PMID 25580906. Particulars: previously evaluated compounds (orange, designated a); read-out: Cyt. L6 IC50; cited from earlier work.
For data set [4], the system named is T.b. rhodesiense, strain STIB 900 trypomastigotes. Description: In vitro activity against T. b. rhodesiense. Particulars: for IC50: Trypanosoma brucei, T.b. rhodesiense STIB 900 trypomastigotes, means of 2 to 3 measurements, SD < 5%, read-out: T.b.r. IC50. The class given is cell-based. The protocol: as §1, §2
In data set [5] the test system is T. cruzi, strain Tulahuen C4 amastigotes. As to the kind of experiment: In vitro activity against T. cruzi. Particulars: for SI (T. c.): IC50 in L6 cells/IC50 in T. cruzi; for IC50: Trypanosoma cruzi, T. cruzi Tulahuen C4 amastigotes, means of 2 to 3 measurements, SD < 5%, read-out: T. c. IC50; for Bnz/comp: fold antichagasic potency relative to Bnz (T. cruzi IC50 ratio). The class given is cell-based.
Method: (§3) The concentration of compound that inhibits parasite growth by 50% (IC50) was calculated from dose response curves for each parasite (Table 1). In addition, compounds were tested for toxicity in L6 rat skeletal myoblasts, the host cells for T. cruzi amastigotes, in order to calculate a selectivity index for each parasite [SI = IC50L6/IC50parasite]
(§4) In vitro activity against T. cruzi, T. b. rhodesiense, L. donovani and cytotoxicity assessment using L6 cells (rat skeletal myoblasts) was determined using a 96-well plate format as previously described [37]. Data were analyzed with the graphic program Softmax Pro (Molecular Devices, Sunnyvale, CA, USA), which calculated IC50 values by linear regression from the sigmoidal dose inhibition curves.

Data set [6] deals with L. donovani axenic, strain MHOM-ET-67/L82 amastigotes. Description: In vitro activity against L. donovani. The class given is cell-based. Particulars: for IC50: Leishmania donovani, L. donovani axenic amastigotes MHOM-ET-67/L82, means of 2 to 3 measurements, SD < 5%, read-out: L.d. IC50.
Method: as §3, §4
A short description of data set [7]: Cytotoxicity in the host L6 cells. The class given is cell-based, rat. As to conditions: rat, L6 cells (rat skeletal myoblasts); cytotoxicity in host L6 cells; read-out: Cyt. L6 IC50. The protocol:
as §1, §2

For data set [8], the system named is bloodstream form T.b. brucei wild type. Description: T. brucei antiproliferating assay, wild type. It is filed as cell-based. Particulars: Trypanosoma brucei, read-out: IC50 value T.b. brucei Wild type, bloodstream form; means from 4 experiments ± SD. The protocol: The BSF of T. brucei parasites were seeded at 1 × 10^3 mL^−1 in 200 μL of growth medium containing different concentrations of nitroheterocycle. Where appropriate, induction of the TbNTR was carried out by adding tetracycline (1 μg/mL). After incubation for 3 days at 37 °C, 20 μL of Alamar blue was added to each well and the plates incubated for a further 16 h. The cell density of each culture was determined as described before and the IC50 established.

The subject of data set [9] is bloodstream form T.b. brucei recombinant parasites expressing wild type (-tet) or elevated (+tet) levels of TbNTR. Description: microbe, parasite or virus in culture. The class given is cell-based. Particulars: Trypanosoma brucei.
Method: The BSF of T. brucei parasites were seeded at 1 × 10^3 mL^−1 in 200 μL of growth medium containing different concentrations of nitroheterocycle. Where appropriate, induction of the TbNTR was carried out by adding tetracycline (1 μg/mL). After incubation for 3 days at 37 °C, 20 μL of Alamar blue was added to each well and the plates incubated for a further 16 h. The cell density of each culture was determined as described before [20] and the IC50 established.
The test system of data set [10] is transgenic T. cruzi parasites expressing firefly luciferase. The class given is in vivo, Balb/c mice. Here is the method: A fast luminescence assay was used in an acute infected murine model, in which transgenic T. cruzi parasites expressing firefly luciferase were injected in 5 week-old Balb/c mice. Mice were injected with D-luciferin before imaging. Groups of 5 mice/group were treated i.p. for 10 consecutive days with each compound, at 13 or 15 mg/kg/day. […] The mean ratio of parasite levels was calculated after 5 and 10 days of treatment.
For in vivo studies, a Brazilian strain trypomastigotes from transgenic T. cruzi parasites expressing firefly luciferase were used as described before. Briefly, parasites (10^5 trypomastigotes) were injected in 5 week-old Balb/c mice (Taconic) and three days later mice were anesthesized by inhalation of isofluorane, followed by an injection with 150 mg/kg of D-luciferin potassium-salt in PBS. Mice were imaged 5–10 min after injection of luciferin with an IVIS 100 (Xenogen, Alameda, CA) and the data acquisition and analysis were performed with the software LivingImage (Xenogen) as described before. Treatment with test compounds started 4 days post infection at 13 or 15 mg/kg/day × 10 days, given i.p. The vehicle control was 2% methylcellulose +0.5% Tween 80 and groups of 5 mice/group were used. Mice were imaged after 5 and 10 days of treatment. The ratio of parasite levels was calculated for each animal dividing the luciferase signal after treatment by the luciferase signal on the first imaging (before treatment). Mean values of all animals in each group ± SD were used for plotting.

The mark [11] stands for this setting: propanamide vs acetamide analog.

On to `N#Cc1ccc(-c2ccc(NC(=O)Cn3cnc([N+](=O)[O-])n3)cc2)cc1` [Compound 9a], for which the “fold less toxic towards L6 cells relative to unsubstituted compounds 10 and 10a” value in data set [1] is greater than 3.5 fold. Further, the “anti-HAT activity class (TDR criteria)” value in data set [2] (T. b. rhodesiense, previously evaluated acetamides) is reported as “active”. Further, the concentration for half-maximal inhibition (IC50) was 0.336 µM in data set [2] (previously evaluated compounds (orange, designated a), read-out: T.b.r. IC50) and 165 µM in [3].

Consider `N#Cc1ccc(-c2ccc(NC(=O)CCn3cnc([N+](=O)[O-])n3)cc2)cc1` [Compound 9, N-(4′-cyano-[1,1′-biphenyl]-4-yl)-3-(3-nitro-1H-1,2,4-triazol-1-yl)propanamide], for which the “SI (T.b.r.)” value in [4] (IC50 in L6 cells/IC50 in T.b. rhodesiense) amounted to 2527. In addition, the IC50 in data set [4] came to 0.091 µM; in data set [5], 0.094 µM; in data set [6] it was 3.17 µM; in data set [7], 230 µM; in [8], 0.12 ± 0.01 µM; in data set [9] (read-out: IC50 value T.b. brucei TbNTR (+tet)) it was 0.12 ± 0.01 µM. Moreover, in data set [9] (read-out: IC50 value T.b. brucei TbNTR (-tet)), the IC50 came out at 0.55 ± 0.04 µM. For the same compound, the “fold more potent against T. b. rhodesiense than the corresponding acetamide” value in data set [4] (setting [11]) was determined as 3.7 fold. In data set [5], the “SI (T. c.)” value came to 2453. Also, in data set [5], the Bnz/comp was found to be 23. The “fold more potent against T. cruzi than the acetamide analog” value in data set [5] (setting [11]) was “about 1.5 fold”. The “SI (L.d.)” value in data set [6] (IC50 in L6 cells/IC50 in L. donovani) turned out to be 73. Further, the “antileishmanial activity class (TDR criteria)” value in data set [6] (L. donovani) is “moderately active (‘moderate activity’ (IC50 between 1.0 and 6.0 μM))”. The “fold less toxic towards L6 cells relative to unsubstituted compounds 10 and 10a” value in data set [1] is greater than 6 fold. In [10] (15 mg/kg/day i.p. x 10 days), the “toxicity symptoms in treated mice” value is “No toxicity symptoms were observed”. For the same compound, the “parasite load after 10 days of treatment” value in data set [10] (15 mg/kg/day i.p. x 10 days, acute murine model, p < 0.0001) is on record as “undetectable levels”. Further, the “parasitic level after 5-day treatment” value in data set [10] (15 mg/kg/day i.p., compared to untreated control) is on record as “Statistically significant reduction in parasitic level”.

`CN(C(=O)Cn1cnc([N+](=O)[O-])n1)c1ccc(C(F)(F)F)cc1` [Compound 2, N-methyl-2-(3-nitro-1H-1,2,4-triazol-1-yl)-N-(4-(trifluoromethyl)phenyl)acetamide] yielded a melting point of 133 to 134 °C. The “anti-HAT activity class (TDR criteria)” value in [4] (T. b. rhodesiense) was “inactive”. Moreover, in data set [4], the IC50 worked out at 37.4 µM. Besides, in data set [5], the “SI (T. c.)” value was roughly 165, the IC50 was 1.54 µM and the Bnz/comp is 1.4. In data set [5] (compared with 2a), the “fold decrease in antichagasic activity compared to 2a” value was 1.6 fold. Also, in data set [5] (compared with 3), the “fold more potent towards T. cruzi amastigotes than 2-nitroimidazole counterpart 3” value came out at 32 fold. Further, the IC50 in [6] stood at 47.7 µM. For the same compound, the IC50 in data set [7] came to 254 µM. Besides, in data set [1] (compared with 2a), the “fold decrease in toxicity against L6 cells compared to 2a” value was 2 fold.
